ChEMBL document CHEMBL1128720, “N-[(1-butyl-4-piperidinyl)methyl]-3,4dihydro-2H-[1,3]oxazino[3,2- a]indole10-carboxamide hydrochloride: the first potent and selective 5-HT4 receptor antagonist amide with oral activity” (J Med Chem, 1995)
One block for each molecule: values may come before it.

Key:
[1] = biological target: 5-hydroxytryptamine receptor 4 (Cavia porcellus, UniProt O70528); experiment: Ability to antagonize 5-HT-evoked contractions mediated through 5-hydroxytryptamine 4 receptor activation in the guinea pig distal colon LMMP; format: tissue-based
Sequence of 5-hydroxytryptamine receptor 4 (O70528 whole entry): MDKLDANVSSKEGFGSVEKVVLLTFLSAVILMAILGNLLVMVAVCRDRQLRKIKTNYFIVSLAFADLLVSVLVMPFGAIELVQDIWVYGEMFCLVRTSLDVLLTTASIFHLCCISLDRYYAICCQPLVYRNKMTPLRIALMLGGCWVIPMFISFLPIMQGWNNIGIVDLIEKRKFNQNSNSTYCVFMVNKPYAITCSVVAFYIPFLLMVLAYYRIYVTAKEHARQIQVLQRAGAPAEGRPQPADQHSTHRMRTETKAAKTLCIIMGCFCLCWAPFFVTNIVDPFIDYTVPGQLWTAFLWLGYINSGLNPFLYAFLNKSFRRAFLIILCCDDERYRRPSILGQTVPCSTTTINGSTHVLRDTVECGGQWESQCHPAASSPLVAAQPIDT

[2] = Binding affinity was determined against 5-hydroxytryptamine 1D receptor
D(3) dopamine receptor = D(3) dopamine receptor (Homo sapiens, UniProt P35462); experiment: Binding affinity was determined against Dopamine receptor D3 determined using cloned human receptors expressed in CHO cells radiolabeled with [125I]- iodosulpride; format: cell-based
Sequence of D(3) dopamine receptor (P35462 whole entry): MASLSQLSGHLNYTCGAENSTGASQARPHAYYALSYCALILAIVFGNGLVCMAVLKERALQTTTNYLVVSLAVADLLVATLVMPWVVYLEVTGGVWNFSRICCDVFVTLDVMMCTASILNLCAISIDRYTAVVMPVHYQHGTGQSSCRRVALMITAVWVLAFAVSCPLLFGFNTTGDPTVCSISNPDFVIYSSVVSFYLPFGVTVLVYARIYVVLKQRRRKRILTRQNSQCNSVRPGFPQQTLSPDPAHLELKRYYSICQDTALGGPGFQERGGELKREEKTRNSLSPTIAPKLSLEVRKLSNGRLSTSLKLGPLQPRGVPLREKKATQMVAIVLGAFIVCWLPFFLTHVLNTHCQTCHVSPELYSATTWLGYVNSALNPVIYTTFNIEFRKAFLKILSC

Histamine H1 receptor = Histamine H1 receptor (Cavia porcellus, UniProt P31389); experiment: Binding affinity was determined against H1 receptor
Sequence of Histamine H1 receptor (P31389 whole entry): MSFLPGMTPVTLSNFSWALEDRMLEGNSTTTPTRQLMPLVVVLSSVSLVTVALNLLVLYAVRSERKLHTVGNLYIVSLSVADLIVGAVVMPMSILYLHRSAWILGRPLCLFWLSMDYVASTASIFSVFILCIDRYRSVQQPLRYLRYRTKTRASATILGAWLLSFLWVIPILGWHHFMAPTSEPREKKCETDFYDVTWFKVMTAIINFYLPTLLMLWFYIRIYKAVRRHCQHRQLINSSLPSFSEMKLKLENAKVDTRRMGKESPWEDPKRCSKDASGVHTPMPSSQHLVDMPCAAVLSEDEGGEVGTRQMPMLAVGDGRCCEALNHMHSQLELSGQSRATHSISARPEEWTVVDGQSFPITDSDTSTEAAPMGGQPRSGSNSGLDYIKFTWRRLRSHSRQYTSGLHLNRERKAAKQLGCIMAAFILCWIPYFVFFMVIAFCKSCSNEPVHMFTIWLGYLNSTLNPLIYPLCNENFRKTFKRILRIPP

D(2) dopamine receptor = D(2) dopamine receptor (Homo sapiens, UniProt P14416); experiment: Binding affinity was determined by standard competitive displacement of [125I]iodosulpride using Dopamine receptor D2 cloned human receptors expressed in CHO cells
Sequence of D(2) dopamine receptor (P14416 whole entry): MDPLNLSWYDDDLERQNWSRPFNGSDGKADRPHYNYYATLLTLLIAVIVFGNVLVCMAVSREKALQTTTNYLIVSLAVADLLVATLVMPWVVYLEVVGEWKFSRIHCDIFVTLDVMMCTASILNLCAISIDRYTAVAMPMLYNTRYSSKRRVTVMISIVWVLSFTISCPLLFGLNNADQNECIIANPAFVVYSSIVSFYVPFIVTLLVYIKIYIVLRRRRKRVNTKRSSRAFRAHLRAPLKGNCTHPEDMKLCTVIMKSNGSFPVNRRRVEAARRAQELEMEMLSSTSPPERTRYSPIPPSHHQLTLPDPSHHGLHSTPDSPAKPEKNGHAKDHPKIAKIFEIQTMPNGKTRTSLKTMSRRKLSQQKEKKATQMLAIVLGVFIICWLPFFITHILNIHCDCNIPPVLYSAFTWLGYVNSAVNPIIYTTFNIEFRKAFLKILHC

[3] = biological target: T1, 5-hydroxytryptamine receptor 1A (Homo sapiens, UniProt P08908); experiment: Binding affinity was determined against 5-hydroxytryptamine 1A receptor; set-up: species or system Cavia porcellus
T1 sequence (P08908 whole entry): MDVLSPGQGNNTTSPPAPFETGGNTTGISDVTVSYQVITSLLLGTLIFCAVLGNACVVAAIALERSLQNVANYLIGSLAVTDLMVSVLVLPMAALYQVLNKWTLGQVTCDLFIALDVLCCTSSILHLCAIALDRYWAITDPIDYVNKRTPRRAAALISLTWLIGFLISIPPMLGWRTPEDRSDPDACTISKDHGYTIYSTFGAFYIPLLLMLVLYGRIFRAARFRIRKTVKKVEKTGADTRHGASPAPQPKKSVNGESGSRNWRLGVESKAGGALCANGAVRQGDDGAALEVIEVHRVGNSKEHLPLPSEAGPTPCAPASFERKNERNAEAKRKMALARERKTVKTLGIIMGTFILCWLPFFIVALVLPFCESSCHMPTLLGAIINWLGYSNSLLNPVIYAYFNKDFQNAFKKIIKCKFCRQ

[4] = biological target: 5-hydroxytryptamine receptor 2A (Homo sapiens, UniProt P28223); experiment: (§1) Binding affinity was determined against 5-hydroxytryptamine 2A receptor; set-up: species or system Cavia porcellus
Sequence of 5-hydroxytryptamine receptor 2A (P28223 whole entry): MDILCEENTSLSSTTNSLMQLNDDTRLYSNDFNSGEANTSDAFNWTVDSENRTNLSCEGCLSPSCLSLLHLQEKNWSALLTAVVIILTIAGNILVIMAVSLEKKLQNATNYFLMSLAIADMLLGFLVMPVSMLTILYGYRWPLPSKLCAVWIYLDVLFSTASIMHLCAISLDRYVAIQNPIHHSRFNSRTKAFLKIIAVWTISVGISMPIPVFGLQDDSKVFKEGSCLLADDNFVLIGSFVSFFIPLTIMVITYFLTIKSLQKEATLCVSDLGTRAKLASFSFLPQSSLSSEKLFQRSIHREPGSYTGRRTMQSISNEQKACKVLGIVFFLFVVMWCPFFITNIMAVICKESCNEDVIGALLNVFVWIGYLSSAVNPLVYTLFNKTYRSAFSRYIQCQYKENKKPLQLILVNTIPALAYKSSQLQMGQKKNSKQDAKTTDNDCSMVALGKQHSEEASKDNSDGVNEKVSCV

[5] = as §1; set-up: species or system Cavia porcellus

SMILES: CCCCN1CCC(CNC(=O)c2c3n(c4ccccc24)CCCCO3)CC1
IC50 [1]: 7.94 nM

SMILES: CCCCN1CCC(CNC(=O)c2c3n(c4ccccc24)CCO3)CC1
IC50 [1]: 15.8 nM

SMILES: CCCCN1CCC(CNC(=O)c2c(OC)[nH]c3ccccc23)CC1
IC50 [1]: 79.4 nM

SMILES: CCCCN1CCC(CNC(=O)c2c3n(c4ccccc24)CCCO3)CC1 [PIBOSEROD]
Ki [2]: > 10000 nM
Ki (D(3) dopamine receptor): > 1000 nM
Ki (Histamine H1 receptor): > 1000 nM
Ki (D(2) dopamine receptor): > 1000 nM
Ki [3]: > 10000 nM
Ki [4]: > 1000 nM
Log Ki [5]: > -6

Continued by falling IC50 [1], values first:

IC50 [1]: 200 nM
SMILES: CCCCN1CCC(CNC(=O)c2c[nH]c3ccccc23)CC1

IC50 [1]: 0.1 nM
SMILES: CCCCN1CCC(COC(=O)c2c(OC)[nH]c3ccccc23)CC1
